The values that follow come from patent US8461328B2, “Tricyclic heterocyclic compounds, compositions and methods of use thereof” (Genentech, Inc., priority 2010, dated 2013).

What all share (type): biochemical
Test [1] concerns the target T1, TYK2 (Homo sapiens, UniProt P29597).
T1 construct: made in house; host or cells: SF9 insect cells (baculovirus)
T1 sequence (P29597 873-1187): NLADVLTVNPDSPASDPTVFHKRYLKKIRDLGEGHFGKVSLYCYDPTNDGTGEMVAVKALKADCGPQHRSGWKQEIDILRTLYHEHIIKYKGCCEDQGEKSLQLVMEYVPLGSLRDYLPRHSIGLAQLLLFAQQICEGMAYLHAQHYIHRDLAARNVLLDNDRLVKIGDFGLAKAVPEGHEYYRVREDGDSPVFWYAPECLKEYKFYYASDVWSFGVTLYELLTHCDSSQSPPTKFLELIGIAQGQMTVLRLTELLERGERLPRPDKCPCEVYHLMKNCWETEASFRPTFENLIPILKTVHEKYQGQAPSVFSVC
Kind of test: TYK2 inhibition (Table 4).

The target in test [2] is T2, JAK2 (Homo sapiens, UniProt O60674).
T2 construct: made in house; host or cells: SF9 insect cells (baculovirus)
T2 sequence (O60674 812-1132): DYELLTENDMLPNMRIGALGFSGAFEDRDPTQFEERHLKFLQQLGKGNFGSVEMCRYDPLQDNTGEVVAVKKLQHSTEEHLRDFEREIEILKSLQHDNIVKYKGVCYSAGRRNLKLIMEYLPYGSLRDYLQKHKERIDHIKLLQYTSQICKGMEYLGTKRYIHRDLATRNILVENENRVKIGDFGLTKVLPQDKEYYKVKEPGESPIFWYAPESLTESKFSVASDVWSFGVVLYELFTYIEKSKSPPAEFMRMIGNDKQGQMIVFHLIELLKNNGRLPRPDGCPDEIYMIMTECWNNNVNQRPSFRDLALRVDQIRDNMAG
Kind of test: JAK2 inhibition (Table 4). The note with it: read-out: JAK2 Ki.

The target of test [3] is T3, JAK3 (Homo sapiens, UniProt P52333).
T3 construct: made in house; host or cells: SF9 insect cells (baculovirus)
T3 sequence (P52333 783-1124): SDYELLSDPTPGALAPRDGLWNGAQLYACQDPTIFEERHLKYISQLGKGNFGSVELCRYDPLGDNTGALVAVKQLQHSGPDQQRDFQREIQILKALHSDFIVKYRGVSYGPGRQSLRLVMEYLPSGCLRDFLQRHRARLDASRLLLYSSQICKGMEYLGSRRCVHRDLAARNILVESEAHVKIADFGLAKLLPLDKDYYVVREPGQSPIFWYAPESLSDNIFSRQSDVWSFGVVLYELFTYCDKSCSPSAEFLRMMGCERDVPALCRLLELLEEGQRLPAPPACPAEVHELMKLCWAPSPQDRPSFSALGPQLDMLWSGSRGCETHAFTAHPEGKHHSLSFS
Kind of test: JAK3 inhibition (Table 4). Conditions: read-out: JAK3 Ki.

Test [4] deals with T4, JAK1 (Homo sapiens, UniProt P23458).
T4 construct: made in house; host or cells: SF9 insect cells (baculovirus)
T4 sequence (P23458 852-1154): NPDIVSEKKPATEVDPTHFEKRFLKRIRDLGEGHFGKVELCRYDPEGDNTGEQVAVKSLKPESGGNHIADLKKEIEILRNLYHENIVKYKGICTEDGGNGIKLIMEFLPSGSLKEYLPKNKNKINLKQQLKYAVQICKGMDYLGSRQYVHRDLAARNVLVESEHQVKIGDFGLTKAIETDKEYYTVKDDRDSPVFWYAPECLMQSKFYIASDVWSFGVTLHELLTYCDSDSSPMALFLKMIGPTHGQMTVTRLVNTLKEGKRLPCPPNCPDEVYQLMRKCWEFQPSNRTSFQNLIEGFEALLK
The test can be described thus: JAK1 inhibition (Table 4). Conditions: read-out: JAK1 Ki.

One may read the Ki as the equilibrium dissociation constant of an inhibitor or competing ligand from its target. Take `CCC(COC)n1c(C)nc2cnc3[nH]ccc3c21` (racemic) [Example 415, 1-(1-Methoxymethyl-propyl)-2-methyl-1,6-dihydro-1,3,5,6-tetraaza-as-indacene]: the Ki in test [1] was found to be 919 nM; in test [2], 233 nM; in test [3] it was 109 nM; in test [4], 115 nM.

For `O=C(Cc1nc2cnc3[nH]ccc3c2n1C1CCCOC1)N1CCC1` (racemic) [Example 967, 1-Azetidin-1-yl-2-[1-(tetrahydro-pyran-3-yl)-1,6-dihydro-1,3,5,6-tetraaza-as-indacen-2-yl]-ethanone], the Ki in test [1] was 1060 nM; in test [2], 776 nM; in test [3], 484 nM; in test [4], 131 nM.

Take `O=C(NCCc1nc2cnc3[nH]ccc3c2n1[C@H]1CCCOC1)C1CC1` [Example 857, (S)-Cyclopropanecarboxylic acid {2-[1-(tetrahydro-pyran-3-yl)-1,6-dihydro-1,3,5,6-tetraaza-as-indacen-2-yl]-ethyl}-amide]: the inhibitory constant (Ki) was 364 nM in test [1], 213 nM in test [2], 525 nM in test [3] and 6.23 nM in test [4].

For the compound `CS(=O)(=O)NCc1nc2cnc3[nH]ccc3c2n1C1CCN(Cc2ccccc2)CC1(F)F` (racemic) [Example 946, N-[1-(1-Benzyl-3,3-difluoro-piperidin-4-yl)-1,6-dihydro-1,3,5,6-tetraaza-as-indacen-2-ylmethyl]-methanesulfonamide], the Ki in test [1] came to 156 nM; in test [2] it was 9.65 nM; in test [3], 12.1 nM; in test [4], 1.43 nM.

Take `Cc1nc2cnc3[nH]ccc3c2n1C1CCN(CCF)CC1` [Example 513, 1-[1-(2-Fluoro-ethyl)-piperidin-4-yl]-2-methyl-1,6-dihydro-1,3,5,6-tetraaza-as-indacene]: the Ki in test [1] was determined as 6.95 nM; in test [2] it was 2.16 nM; in test [3], 7.63 nM; in test [4], 0.84 nM.

`CC(=O)NC1CCCC(n2cnc3cnc4[nH]ccc4c32)C1` (single isomer, unassigned) [Example 479, N-[3-(6H-1,3,5,6-Tetraaza-as-indacen-1-yl)-cyclohexyl]-acetamide]: the Ki in test [1] turned out to be 420 nM; in test [2], 123 nM; in test [3] it was 121 nM; in test [4], 130 nM.

For the compound `CCN1CCC(n2cnc3cnc4[nH]ccc4c32)C(F)(F)C1` (racemic) [Example 532, 1-(1-Ethyl-3,3-difluoro-piperidin-4-yl)-1,6-dihydro-1,3,5,6-tetraaza-as-indacene], the inhibition constant (Ki) in test [1] came out at 23.8 nM; in test [2], 6 nM; in test [3] it was 30.4 nM; in test [4], 2.86 nM.

As for `O=C(Cc1nc2cnc3[nH]ccc3c2n1C1CCCOC1)N1CCCC1` (racemic) [Example 968, 1-Pyrrolidin-1-yl-2-[1-(tetrahydro-pyran-3-yl)-1,6-dihydro-1,3,5,6-tetraaza-as-indacen-2-yl]-ethanone], the Ki came out at 1170 nM in test [1], 891 nM in test [2], 361 nM in test [3] and 131 nM in test [4].

For `CS(=O)(=O)NCCc1nc2cnc3[nH]ccc3c2n1C1CCN(CCC#N)CC1` [Example 118, N-(2-{1-[1-(2-Cyano-ethyl)-piperidin-4-yl]-1,6-dihydro-1,2,3,5,6-tetraaza-as-indacen-2-yl}-ethyl)-methanesulfonamide], the inhibitory constant (Ki) stood at 63.1 nM in test [1], 12 nM in test [2], 23.6 nM in test [3] and 1.94 nM in test [4].

`c1ccc(CCN2CCC(n3cnc4cnc5[nH]ccc5c43)CC2)cc1` [Example 80, 1-(1-Phenethyl-piperidin-4-yl)-1,6-dihydro-1,3,5,6-tetraaza-as-indacene]: the Ki in test [1] is 106 nM; in test [2] it was 15.5 nM; in test [3] it was 163 nM; in test [4], 5.61 nM.

As to `N#CCCN1CCC(n2c(CNCC(F)(F)F)nc3cnc4[nH]ccc4c32)CC1` [Example 695, 3-(4-{2-[(2,2,2-Trifluoro-ethylamino)-methyl]-6H-1,2,3,5,6-tetraaza-as-indacen-1-yl}-piperidin-1-yl)-propionitrile], the Ki in test [1] amounted to 483 nM; in test [2] it was 77.7 nM; in test [3] it was 63.1 nM; in test [4] it was 28.4 nM.

Turning to `c1cncc(CN2CCC(n3cnc4cnc5[nH]ccc5c43)CC2)c1` [Example 50, 1-(1-Pyridin-3-ylmethyl-piperidin-4-yl)-1,6-dihydro-1,3,5,6-tetraaza-as-indacene], the Ki in test [1] came out at 88.8 nM; in test [2], 4.84 nM; in test [3], 18 nM; in test [4], 2.48 nM.

For the compound `COCCN(C)C(=O)NC1CCC(n2cnc3cnc4[nH]ccc4c32)CC1` (stereo not drawn) [Example 763, 1-(2-Methoxy-ethyl)-1-methyl-3-[4-(6H-1,3,5,6-tetraaza-as-indacen-1-yl)-cyclohexyl]-urea], the Ki was 223 nM in test [1], 42.2 nM in test [2], 278 nM in test [3] and 12.5 nM in test [4].

As to `CC(O)c1nc2cnc3[nH]ccc3c2n1C1CCN(Cc2csc(C(F)(F)F)n2)CC1` (racemic) [Example 351, 1-{1-[1-(2-Trifluoromethyl-thiazol-4-ylmethyl)-piperidin-4-yl]-1,6-dihydro-1,3,5,6-tetraaza-as-indacen-2-yl}-ethanol], the inhibition constant (Ki) amounted to 284 nM in test [1], 29.2 nM in test [2], 31.4 nM in test [3] and 4.94 nM in test [4].

On to `N#CCCn1cc2c(n1)CCC(n1cnc3cnc4[nH]ccc4c31)C2` (racemic) [Example 991, 3-[5-(6H-1,3,5,6-Tetraaza-as-indacen-1-yl)-4,5,6,7-tetrahydro-indazol-2-yl]-propionitrile], for which the Ki in test [1] worked out at 58.6 nM; in test [2], 11.7 nM; in test [3], 109 nM; in test [4] it was 9.26 nM.

Take `CN(CC(F)(F)F)C(=O)NC1CCC(n2cnc3cnc4[nH]ccc4c32)CC1` (stereo not drawn) [Example 745, 1-methyl-3-[4-(6H-1,3,5,6-tetraaza-as-indacen-1-yl)-cyclohexyl]-1-(2,2,2-trifluoro-ethyl)-urea]: the inhibition constant (Ki) in test [1] is 113 nM; in test [2] it was 11.6 nM; in test [3], 37.1 nM; in test [4], 3.22 nM.

Take `Cn1cc2c(n1)CCC(n1cnc3cnc4[nH]ccc4c31)C2` (racemic) [Example 956, 1-(2-Methyl-4,5,6,7-tetrahydro-2H-indazol-5-yl)-1,6-dihydro-1,3,5,6-tetraaza-as-indacene]: the inhibition constant (Ki) was 282 nM in test [1], 89.8 nM in test [2], 410 nM in test [3] and 55.3 nM in test [4].

Turning to `c1ccc(CN2CCC(n3nnc4cnc5[nH]ccc5c43)CC2)cc1` [Example 66, 1-(1-Benzyl-piperidin-4-yl)-1,6-dihydro-1,2,3,5,6-pentaaza-as-indacene], the Ki in test [1] came out at 240 nM; in test [2], 9.86 nM; in test [3], 68.3 nM; in test [4], 7.15 nM.

Regarding `CC(C)(O)[C@H]1CC[C@@H](n2cnc3cnc4[nH]ccc4c32)CC1` [Example 957, Cis-2-[4-(6H-1,3,5,6-Tetraaza-as-indacen-1-yl)-cyclohexyl]-propan-2-ol], the inhibitory constant (Ki) in test [1] turned out to be 174 nM; in test [2], 60.2 nM; in test [3], 210 nM; in test [4] it was 50 nM.

As to `CCC(COC)n1c(C(C)O)nc2cnc3[nH]ccc3c21` (single isomer, unassigned) [Example 182a, 1-[1-(1-Methoxymethyl-propyl)-1,6-dihydro-1,2,3,5,6-tetraaza-as-indacen-2-yl]-ethanol], the Ki was 3180 nM in test [1], 888 nM in test [2], 351 nM in test [3] and 291 nM in test [4].

Consider `O=S(=O)(c1ccccc1)N1CC[C@@H](n2cnc3cnc4[nH]ccc4c32)C1` [Example 432, 1-((R)-1-Benzenesulfonyl-pyrrolidin-3-yl)-1,6-dihydro-1,3,5,6-tetraaza-as-indacene], for which the inhibitory constant (Ki) was found to be 73.2 nM in test [1], 17.9 nM in test [2], 1280 nM in test [3] and 19.7 nM in test [4].

For `c1cncc(CN2CCCC(n3cnc4cnc5[nH]ccc5c43)CC2)c1` (racemic) [Example 487, 1-(1-Pyridin-3-ylmethyl-azepan-4-yl)-1,6-dihydro-1,3,5,6-tetraaza-as-indacene], the Ki in test [1] was determined as 234 nM; in test [2] it was 30.8 nM; in test [3], 37.1 nM; in test [4], 16.5 nM.

For `N#CCCN1CCC(n2c(COCC(F)(F)F)nc3cnc4[nH]ccc4c32)CC1` [Example 834, 3-{4-[2-(2,2,2-Trifluoro-ethoxymethyl)-6H-1,3,5,6-tetraaza-as-indacen-1-yl]-piperidin-1-yl}-propionitrile], the Ki in test [1] is 637 nM; in test [2], 117 nM; in test [3], 85.4 nM; in test [4] it was 33.5 nM.

Take `C[C@@H](O)c1nc2cnc3[nH]ccc3c2n1[C@@H]1CCNC1` [Example 687, (R)-1-((R)-1-Pyrrolidin-3-yl-1,6-dihydro-1,2,3,5,6-tetraaza-as-indacen-2-yl)-ethanol]: the Ki came out at 834 nM in test [1], 1480 nM in test [2], 858 nM in test [3] and 167 nM in test [4].
